Assay results: paper PMC3823043 (Journal of Cellular and Molecular Medicine, 2008)

Target: delta opioid receptor (DOR), murine, wild-type (Mus musculus, UniProt P32300)
Test: [3H]naltrindole radioligand binding
Details: labelled compound; HEK293 DOR clone; no affinity constant printed

Sequence of delta opioid receptor (DOR), murine, wild-type (P32300 whole entry): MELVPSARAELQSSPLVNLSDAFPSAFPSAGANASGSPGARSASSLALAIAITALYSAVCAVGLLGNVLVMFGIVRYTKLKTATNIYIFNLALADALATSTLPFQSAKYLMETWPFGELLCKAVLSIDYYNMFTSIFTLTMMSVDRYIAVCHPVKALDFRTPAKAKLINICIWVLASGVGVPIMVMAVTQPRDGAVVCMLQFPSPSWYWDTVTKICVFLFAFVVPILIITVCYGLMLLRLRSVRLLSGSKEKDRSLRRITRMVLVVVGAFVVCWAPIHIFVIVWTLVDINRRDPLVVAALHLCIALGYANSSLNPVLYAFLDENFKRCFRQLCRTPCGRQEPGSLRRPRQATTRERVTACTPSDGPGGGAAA

## Oc1ccc2c3c1O[C@H]1c4[nH]c5ccccc5c4C[C@@]4(O)[C@@H](C2)N(CC2CC2)CC[C@]314 [[3H]naltrindole]
  [3H]naltrindole radioligand binding: Receptor expression levels in DOR clones was assessed by means of [^3H]Naltrindole binding
